Patent US10906905B2, “Five-membered heteroaryl ring bridged ring derivative, preparation method therefor and medical use thereof” (Jiangsu Hengrui Medicine Co., Ltd., priority 2016, dated 2021)

How the values were obtained:
TGFβRI kinase ALK5 = TGFβRI kinase ALK5 (Homo sapiens (Human), UniProt P36897); experiment: Inhibition of TGFβRI kinase ALK5 activity (TGFβRI kinase assay kit, ADP-Glo); assay type: biochemical; conditions: ATP 50 μM; read-out: IC50 of inhibition effect on TGFβRI kinase ALK5 activity
Protocol: The inhibition effect of TGFβRI kinase activity in vitro was determined by the following method.
The inhibition effect of the compounds of the present invention on TGFβRI kinase ALK5 activity was determined by the following experimental method:
(§1) TGFβRI kinase assay kit (V4093, Promega) was used to assay enzyme activity. 2 μl of enzyme solution (the final concentration of enzyme in the reaction system was 2 ng/μL) formulated with reaction buffer (40 mM Tris pH 7.5, 20 mM MgCl2, 0.1 mg/ml BSA), 1 μl of a 3-fold gradient dilution of the compounds dissolved in 5% DMSO, and 2 μl of a mixed solution of ATP and TGFβRI substrate peptide (the final concentration of ATP was 50 μM, and the final concentration of substrate was 0.2 μg/μL) were added successively to a 384-well plate (4514, Corning). After reaction at 27° C. for 2.5 hours, 5 μl of ADP-Glo solution in the kit was added to each well, then the plate was placed at 27° C. for 40 minutes. 10 μl of kinase assay reagent was then added to each well, then the plate was placed at 27° C. for 30 minutes. The chemiluminescence signal values were measured with a Victor 3 (PerkinElmer) multi-function microplate reader. The IC50 values of the compounds for enzyme inhibition were calculated using Graphpad prism software based on each concentration of the compound and the corresponding signal value thereof.

[1] = target: recombinant human VEGFR2 enzyme (Homo sapiens (Human), UniProt P35968); experiment: Inhibition of VEGFR2 kinase activity (Z'-LYTE Kinase Assay Kit); assay type: biochemical; conditions: ATP 50 μM; read-out: IC50 of inhibition effect on VEGFR2 kinase activity
Protocol: The inhibition effect of VEGFR2 kinase activity in vitro was determined by the following method.
The inhibition effect of the compounds of the present invention on VEGFR2 kinase activity was determined by the following experimental method:
After reaction at 25° C. for 2 hours, 5 μL of detection reagent was added to each well. […] The IC50 values of the compounds for enzyme inhibition were calculated using Graphpad prism software based on each concentration of the compound and the corresponding signal value thereof.

p38α kinase = p38α kinase (Homo sapiens (Human), UniProt Q16539); experiment: Inhibition of p38α kinase activity (p38α kinase assay kit, ADP-Glo); assay type: biochemical; conditions: ATP 50 μM; read-out: IC50 of inhibition effect on p38α kinase activity
Protocol: The inhibition of p38α kinase activity in vitro was determined by the following method.
The inhibition effect of the compounds of the present invention on p38a kinase activity was determined by the following experimental method:
as §1, with “p38α kinase” for “TGFβRI kinase”, “kit (V9591,” for “kit (V4093,”, “was 0.5” for “was 2”, “and p38” for “and TGFβRI”, “compounds on” for “compounds for”

[2] = system: Smad signaling pathway of TGFβRI; experiment: Inhibition of Smad signaling pathway of TGFβRI (3TP-lux luciferase reporter in HepG2 cell); assay type: cell-based; conditions: Homo sapiens; HepG2 cell, 3TP-lux plasmid, 18 hours; read-out: IC50 on the inhibition of Smad signaling pathway of TGFβRI
Protocol: The inhibition effect of the compounds of the present invention on Smad signaling pathway of TGFβRI was determined by the following in vitro test.
The inhibition effect of the compounds of the present invention on Smad signaling pathway of TGFβRI was determined by the following experimental method:
The seeding density is 2.5×10^4 cells/well. The cells were incubated overnight at 37° C., 5% CO2. Each well was replaced with fresh EMEM medium containing 10% FBS. […] The cells were further incubated for 24 hours at 37° C., 5% CO2. Each well was replaced with 90 μL of EMEM medium containing 0.5% FBS, then the cells were starved for 6 hours. The compounds were formulated as a 20 mM stock solution, which was diluted in gradient to a 400× concentration with 100% DMSO, and further 40-fold diluted with EMEM containing 0.5% FBS. The cell culture plate was taken out, then 10 μl of diluted compound or control (0.25% DMSO) was added to each well respectively. The plate was shaken gently, then incubated for 18 hours in an incubator at 37° C., 5% CO2. Finally, 100 μl of detection reagent ONE-Glo™ Luciferase Assay (E6110, Promega) was added to each well, and the plate was placed in dark at room temperature for 10 minutes. The chemiluminescence signal values were measured with a Victor 3.0 (PerkinElmer). The IC50 values of the compounds were calculated using Graphpad Prism software based on each concentration of the compound and the corresponding signal value thereof.

NIH3T3 cell = experiment: Inhibition of NIH3T3 cell proliferation (CellTiter-Glo); assay type: cell-based; conditions: Mus musculus, 72 hours, 0.5% FBS
Protocol: The inhibition effect of the compounds of the present invention on NIH3T3 cell proliferation was determined by the following in vitro test.
The inhibition effect of the compounds of the present invention on NIH3T3 cell proliferation was determined by the following experimental method:
On a 96-well white plate with transparent bottom (3903, Corning), 100 μL of NIH3T3 cell (GNM6, Cell Bank of Typical Culture Collection Committee of Chinese Academy of Sciences) was seeded in a DMEM medium containing 10% FBS in each well. The seeding density is 2000 cells/well. The cells were incubated overnight at 37° C., 5% CO2. After overnight incubation, each well was replaced with 90 μL of DMEM medium containing 0.5% FBS. 10 μl of a 3-fold gradient dilution of the compounds with DMEM medium containing 0.5% FBS was then added, and the plate was incubated for 72 hours in a cell incubator at 37° C., 5% CO2. Finally, 50 μL of CellTiter-Glo (G7573, Promega) was added to each well. After incubation for 10 minutes at room temperature, the chemiluminescence signal values were measured with a Victor 3 microplate reader (PerkinElmer). The IC50 values of the compounds were calculated using Graphpad Prism software based on each concentration of the compound and the corresponding signal value thereof.

Chain of p38α kinase (Q16539 whole entry): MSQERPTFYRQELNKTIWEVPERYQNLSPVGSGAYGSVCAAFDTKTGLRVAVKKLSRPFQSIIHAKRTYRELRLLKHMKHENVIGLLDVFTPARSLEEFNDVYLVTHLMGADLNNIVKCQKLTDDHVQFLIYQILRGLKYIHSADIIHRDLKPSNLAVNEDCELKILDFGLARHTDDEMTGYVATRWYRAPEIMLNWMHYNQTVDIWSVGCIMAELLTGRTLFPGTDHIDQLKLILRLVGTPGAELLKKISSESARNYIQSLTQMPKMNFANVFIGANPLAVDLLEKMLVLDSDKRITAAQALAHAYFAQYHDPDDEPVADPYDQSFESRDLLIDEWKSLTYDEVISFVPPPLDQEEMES
Chain of recombinant human VEGFR2 enzyme (P35968 20-1356): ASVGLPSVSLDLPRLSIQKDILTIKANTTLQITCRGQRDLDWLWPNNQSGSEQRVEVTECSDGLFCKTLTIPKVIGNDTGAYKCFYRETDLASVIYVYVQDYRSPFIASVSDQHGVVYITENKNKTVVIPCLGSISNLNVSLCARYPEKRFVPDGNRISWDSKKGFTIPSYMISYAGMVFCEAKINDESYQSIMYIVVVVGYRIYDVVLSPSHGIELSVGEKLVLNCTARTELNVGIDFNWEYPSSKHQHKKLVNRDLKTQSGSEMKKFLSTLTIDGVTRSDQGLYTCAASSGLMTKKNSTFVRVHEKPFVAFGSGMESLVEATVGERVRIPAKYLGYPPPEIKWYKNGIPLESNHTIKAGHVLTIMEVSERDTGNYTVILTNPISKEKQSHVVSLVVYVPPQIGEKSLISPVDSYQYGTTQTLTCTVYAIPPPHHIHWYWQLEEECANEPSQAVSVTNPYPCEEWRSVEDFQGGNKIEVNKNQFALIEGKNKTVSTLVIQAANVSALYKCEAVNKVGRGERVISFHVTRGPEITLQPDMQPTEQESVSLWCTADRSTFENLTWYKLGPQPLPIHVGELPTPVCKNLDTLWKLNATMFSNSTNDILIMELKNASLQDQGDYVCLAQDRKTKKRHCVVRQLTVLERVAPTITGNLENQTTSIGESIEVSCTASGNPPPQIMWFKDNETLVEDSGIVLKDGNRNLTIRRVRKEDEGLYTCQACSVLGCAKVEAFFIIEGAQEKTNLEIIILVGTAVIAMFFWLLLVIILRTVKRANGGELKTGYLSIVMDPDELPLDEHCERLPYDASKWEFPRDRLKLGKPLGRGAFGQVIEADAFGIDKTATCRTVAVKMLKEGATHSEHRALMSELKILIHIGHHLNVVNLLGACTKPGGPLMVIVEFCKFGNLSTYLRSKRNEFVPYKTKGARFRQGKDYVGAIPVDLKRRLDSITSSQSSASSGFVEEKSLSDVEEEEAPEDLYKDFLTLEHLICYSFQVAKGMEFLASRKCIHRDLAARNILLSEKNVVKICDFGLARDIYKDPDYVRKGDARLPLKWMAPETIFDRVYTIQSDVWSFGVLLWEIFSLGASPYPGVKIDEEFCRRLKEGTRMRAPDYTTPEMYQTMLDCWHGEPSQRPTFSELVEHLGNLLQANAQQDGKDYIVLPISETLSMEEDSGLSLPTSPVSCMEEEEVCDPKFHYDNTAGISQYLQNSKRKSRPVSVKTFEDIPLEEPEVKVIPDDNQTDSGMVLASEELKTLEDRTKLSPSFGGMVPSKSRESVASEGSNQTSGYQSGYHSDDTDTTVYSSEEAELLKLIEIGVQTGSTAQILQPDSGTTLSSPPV
Chain of TGFβRI kinase ALK5 (P36897 34-503): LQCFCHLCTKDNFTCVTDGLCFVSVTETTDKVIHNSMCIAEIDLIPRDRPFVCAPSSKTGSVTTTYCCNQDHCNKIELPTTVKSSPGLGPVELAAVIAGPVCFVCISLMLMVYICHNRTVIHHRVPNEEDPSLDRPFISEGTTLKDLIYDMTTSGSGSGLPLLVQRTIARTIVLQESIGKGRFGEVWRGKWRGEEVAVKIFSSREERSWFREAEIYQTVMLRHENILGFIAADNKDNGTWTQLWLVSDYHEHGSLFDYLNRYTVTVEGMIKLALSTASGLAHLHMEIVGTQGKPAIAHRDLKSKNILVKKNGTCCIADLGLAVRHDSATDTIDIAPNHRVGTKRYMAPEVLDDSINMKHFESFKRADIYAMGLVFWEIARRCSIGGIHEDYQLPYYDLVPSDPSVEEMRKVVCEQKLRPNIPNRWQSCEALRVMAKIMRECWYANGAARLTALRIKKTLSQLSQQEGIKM

SMILES | IC50 (TGFβRI kinase ALK5) [nM] | IC50 [1] [nM] | IC50 (p38α kinase) [nM] | IC50 [2] [nM] | IC50 (NIH3T3 cell) [nM]
Cc1cccc(-c2nc3n(c2-c2ccnc(-c4ccc(S(C)(=O)=O)cc4)c2)[C@@H]2CC[C@H]3C2)n1 [Example 3-2, (5R,8S)-2-(6-Methylpyridin-2-yl)-3-(2-(4-(methylsulfonyl)phenyl)pyridin-4-yl)-5,6,7,8-tetrahydro-5,8-methanoimidazo[1,2-a]pyridine] | 23 | 928 | 654 | 31 | –
Cc1cccc(-c2nc3n(c2-c2ccnc(-c4ccc(C(N)=O)cc4)c2)C2CCC3C2)n1 (stereo not shown) [Example 4, 4-(4-(2-(6-Methylpyridin-2-yl)-5,6,7,8-tetrahydro-5,8-methanoimidazo[1,2-a]pyridin-3-yl)pyridin-2-yl)benzamide] | 29 | 4060 | 638 | 86 | –
Cc1cccc(-c2nc3n(c2-c2ccnc(NCCN4CCOCC4)c2)[C@H]2CC[C@@H]3C2)n1 [Example 16-1, 4-((5S,8R)-2-(6-Methylpyridin-2-yl)-5,6,7,8-tetrahydro-5,8-methanoimidazo[1,2-a]pyridin-3-yl)-N-(2-morpholinoethyl)pyridin-2-amine] | 77 | > 10000 | – | – | –
Cc1cccc(-c2nn3c(c2-c2ccc4nccc(C(N)=O)c4c2)C2CCC3CC2)n1 [Example 36, 6-(2-(6-Methylpyridin-2-yl)-4,5,6,7-tetrahydro-4,7-ethanopyrazolo[1,5-a]pyridin-3-yl)quinoline-4-carboxamide] | 21 | 1010 | 598 | 18 | –
Cn1cc(-c2cc(-c3c(-c4ccc(F)cn4)nc4n3[C@H]3CC[C@@H]4C3)ccn2)cn1 [Example 40-1, (5S,8R)-2-(5-Fluoropyridin-2-yl)-3-(2-(1-methyl-1H-pyrazol-4-yl)pyridin-4-yl)-5,6,7,8-tetrahydro-5,8-methanoimidazo[1,2-a]pyridine] | 10 | 2080 | 1360 | 18 | 42
CS(=O)(=O)c1ccc(-c2cc(-c3c(-c4ccc(F)cn4)nc4n3[C@H]3CC[C@@H]4C3)ccn2)cc1 [Example 42-1, (5S,8R)-2-(5-Fluoropyridin-2-yl)-3-(2-(4-(methylsulfonyl)phenyl)pyridin-4-yl)-5,6,7,8-tetrahydro-5,8-methanoimidazo[1,2-a]pyridine] | – | 9740 | 7780 | 31 | –
